Experimental data taken from patent US5190938A, “Derivatives of 2-hydroxythiophene and -furan fused with a nitrogen-containing ring and their application in therapy” (Sanofi, priority 1989, dated 1993).
Structures can show the parent of a compound that is named as a salt. Where two headings read alike, the source gives them in different places.

Experiments:
platelet aggregation = experiment: Platelet aggregation-inhibitory activity in rats (blood taken from treated animals, ADP or collagen added); format: in vivo; conditions: Rattus norvegicus, po, orally
Description: b) Platelet aggregation-inhibitory activity in rats.

[1] = target: porcine pancreatic elastase (Sus scrofa, UniProt P00772); experiment: In vitro inhibition of elastase enzymatic activity (hydrolysis of Suc-Ala-Ala-Pro-LeupNA), Table I; format: biochemical; conditions: 25° C., pH 8.8, concentration in the final solution
Method: (§1) a) In vitro inhibition of elastase enzymatic activity.
(§2) The variation of the rate of hydrolysis of a substrate specific of elastases was studied in the presence and absence of the test compound according to a conventional technique. The experiments were performed with porcine pancreatic elastase, and human neutrophil elastase extracted from purulent sputum; the enzyme substrate was a chromogenic tetrapeptide, N-succinyl-L-alanyl-L-alanyl-[…]-L-leucyl-p-nitroanilide, designated Suc-Ala-Ala-Pro-LeupNA, which, on hydrolysis, liberates p-nitroaniline, the appearance of which in the medium is followed in a spectrophotometer; alpha1 -antitrypsin was used as a standard inhibitor. The experiments were performed at 25° C., the spectrophotometric measurement being made at 410 nm.
(§3) The solution of substrate was prepared by dissolving 5.8 mg of anilide in 20 ml of buffer solution containing 24.22 g/l of Tris-HCl with 754 mg/l of CaCl2, adjusted to pH 8.8.
(§4) The solution of enzyme in the same buffer was at a concentration of 0.1 g/l, while the solutions of test compound in the same buffer were at concentrations of between 0.1 mM and 0.01 μM.
(§5) 200 μl of solution of substrate, 75 μl of buffer solution and 200 μl of solution of the test compound, or of buffer solution in the case of the controls, were mixed in tubes. After 20 minutes at 25° C., the tube was placed in the recording spectrophotometer and 25 μl of the solution of enzyme were added to this medium; the change in the optical density ΔOD was recorded for 30 seconds.
(§6) The percentage inhibition is defined as the difference between the change in OD for the control sample and that for the test sample, divided by the change for the control and multiplied by 100. [formula]

human leucocyte elastase = target: T1, human leucocyte elastase (Homo sapiens, UniProt P08246); experiment: In vitro inhibition of elastase enzymatic activity (hydrolysis of Suc-Ala-Ala-Pro-LeupNA), Table II; format: biochemical; conditions: human leucocyte (neutrophil) elastase from purulent sputum; 25° C.; pH 8.8; concentration in the final solution
T1 construct: human neutrophil elastase extracted from purulent sputum; from tissue; host or cells: purulent sputum
T1 sequence (P08246 30-247 limits assumed): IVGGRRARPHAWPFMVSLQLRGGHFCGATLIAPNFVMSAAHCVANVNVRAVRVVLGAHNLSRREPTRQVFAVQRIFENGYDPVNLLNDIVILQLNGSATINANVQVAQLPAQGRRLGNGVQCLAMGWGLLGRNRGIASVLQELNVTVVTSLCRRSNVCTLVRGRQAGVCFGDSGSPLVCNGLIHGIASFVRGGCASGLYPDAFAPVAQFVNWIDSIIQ
Method: as §1, §2, §3, §4, §5, §6

[2] = ADP, read-out: percentage inhibition of aggregation, ADP
[3] = collagen, read-out: percentage inhibition of aggregation, collagen

Sequence of porcine pancreatic elastase (P00772 27-266): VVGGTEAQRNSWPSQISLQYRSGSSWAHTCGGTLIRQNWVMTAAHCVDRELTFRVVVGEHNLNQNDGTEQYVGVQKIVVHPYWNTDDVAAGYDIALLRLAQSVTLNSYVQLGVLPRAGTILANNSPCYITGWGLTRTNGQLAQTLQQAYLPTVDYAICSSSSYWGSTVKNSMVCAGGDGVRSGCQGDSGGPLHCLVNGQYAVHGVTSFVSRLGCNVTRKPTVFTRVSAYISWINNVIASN

Compound	inhibition at 100 mg/kg (platelet aggregation; [2]) [%]	inhibition at 100 mg/kg (platelet aggregation; [3]) [%]	IC50 [1] [µM]	IC50 (human leucocyte elastase) [µM]
CC(C)(C)C(=O)Oc1cc2c(s1)CCN(Cc1ccccc1Cl)C2 [SR 26766, 5-(2-chlorobenzyl)-4,5,6,7-tetrahydrothieno[3,2-c]pyridyl-2 t-butyrate]	61	62		
CC(C)(C)C(=O)Oc1cc2c(o1)CCN(Cc1ccccc1Cl)C2 [SR 26938, 5-(2-chlorobenzyl)-4,5,6,7-tetrahydrofuro-[3,2-c]pyrid-2yl t-butyrate]			3.6	3.1
CC(c1ccccc1)[N+]1([O-])CCc2sc(OC(=O)C(C)(C)C)cc2C1 (stereo not shown) [SR 27354]			10	2.6
CC(c1ccccc1)N1CCc2sc(OC(=O)C(C)(C)C)cc2C1 (racemic) [SR 27319]			4.5	3.4
CC(C)C(=O)Oc1cc2c(s1)CCN(Cc1ccccc1Cl)C2 [SR 26772]			5.8	2.6
CC(C)(C)C(=O)Oc1cc2c(s1)CCN(Cc1ccccc1)C2 [SR 26827]	48	21	9	3.4
CC(=O)Oc1cc2c(s1)CC[N+]([O-])(C(C(=O)N1CCCC1)c1ccccc1Cl)C2 (stereo not shown) [SR 26914]			25	
COC(=O)C(c1ccccc1Cl)N1CCc2sc(OC(=O)C(C)C)cc2C1 (stereo not shown) [SR 26886]			2.9	30
CC(C)C(=O)Oc1cc2c(s1)CC[N+]([O-])(Cc1ccccc1Cl)C2 (stereo not shown) [SR 26833]			6	3.6
CC(C)C(=O)Oc1cc2c(s1)CN(Cc1ccccc1Cl)CC2 [SR 26862]			4	
CC(=O)Oc1cc2c(s1)CCN(C(C(=O)N1CCCC1)c1ccccc1Cl)C2 (stereo not shown) [SR 26913]			32	
CCOC(=O)Oc1cc2c(s1)CC[N+]([O-])(Cc1ccccc1Cl)C2 (stereo not shown) [SR 26894]			24	
CN1CCc2sc(OC(=O)C(C)(C)C)cc2C1 [SR 26984, 5-methyl-4,5,6,7-tetrahydrothieno[3,2-c]pyrid-2-yl t-butyrate]			3.6	2.6
CCCC(=O)Oc1cc2c(s1)CCN(Cc1ccccc1Cl)C2 [PCR 4094]			2	3.5
CCCN1CCc2sc(OC(=O)C(C)(C)C)cc2C1 [SR 27318, 5-propyl-4,5,6,7-tetrahyirothieno[3,2-c]pyrid-2-yl t-butyrate]			10	3
CCCC(=O)Oc1cc2c(s1)CC[N+]([O-])(Cc1ccccc1Cl)C2 (stereo not shown) [SR 26832]			7	5.6

Compound	inhibition at 100 mg/kg (platelet aggregation; [2]) [%]	inhibition at 100 mg/kg (platelet aggregation; [3]) [%]	IC50 [1] [µM]	IC50 (human leucocyte elastase) [µM]
CC(C)C(=O)Oc1cc2c(s1)CCN(Cc1ccc(Cl)cc1)C2 [SR 26769]			7	30
COc1ccc(CN2CCc3sc(OC(=O)C(C)(C)C)cc3C2)cc1 [SR 27261]			4.5	3.2
CC(C)(C)C(=O)Oc1cc2c(s1)CC[N+](C)(Cc1ccccc1Cl)C2 (stereo not shown) [SR 27168]			1.6	
CC(C)(C)C(=O)Oc1cc2c(o1)CC[N+]([O-])(Cc1ccccc1Cl)C2 (stereo not shown) [SR 26993]			1.7	3.1
CC(C)C(=O)Oc1cc2c(s1)CCNC2 [SR 26861, 4,5,6,7-Tetrahydrothieno[3,2-c]pyrid-2-yl isobutyrate, hydrochloride]			6.4	2.6
CCC[N+]1([O-])CCc2sc(OC(=O)C(C)(C)C)cc2C1 (stereo not shown) [SR 27325]			15	0.7
CC(C)(C)C(=O)Oc1cc2c(s1)CCNC2 [SR 26842, 4,5,6,7,-tetrahydrothieno[3,2-c]pyrid-2-yl t-butyrate]			10	3.2
CC(C)(C)C(=O)Oc1cc2c(s1)CC[N+]([O-])(Cc1ccc(Cl)cc1)C2 (stereo not shown) [SR 26977]			2.5	1.8
COc1ccc(C[N+]2([O-])CCc3sc(OC(=O)C(C)(C)C)cc3C2)cc1 (stereo not shown) [SR 27262]			1	2.6
CC(C)C(=O)Oc1cc2c(s1)CCN(Cc1ccccc1)C2 [SR 26829]			8	24
CC(C)(C)C(=O)Oc1cc2c(s1)CC[N+]([O-])(Cc1ccccc1)C2 (stereo not shown) [SR 26986]			2.2	2.3
CC(C)(C)C(=O)Oc1cc2c(s1)CC[N+](C)([O-])C2 (stereo not shown) [SR 27165]			10	
CC(C)(C)C(=O)Oc1cc2c(s1)CC[N+]([O-])(Cc1ccccc1Cl)C2 (stereo not shown) [SR 26831]			5	2.5
CC(C)(C)C(=O)Oc1cc2c(s1)C[N+]([O-])(Cc1ccccc1Cl)CC2 (stereo not shown) [SR 26998]			2.2	2.2
CCCC(=O)Oc1cc2c(s1)CCN(Cc1ccc(Cl)cc1)C2 [SR 26767]			4.8	3.4
